Results: ChEMBL document CHEMBL1201862, “PubChem BioAssay data set” (2004)
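48-hour exposure; five concentrations; linearly interpolated endpoints. The concentration for 50% growth inhibition is given as GI50.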 Activity calls are given as the source filed them. No stated cut-off is given here; in the data, active = GI50 up to about 1.1 µM and inactive = higher.

Legend:
Experiment in all cases: growth of human tumour cells (NCI), 48 h
[1] = test system: KM12
[2] = test system: TK-10
[3] = test system: HCC 2998
[4] = test system: K562
[5] = test system: SN12C
[6] = test system: SF-295
[7] = test system: XF498
[8] = test system: ACHN
[9] = test system: SK-MEL-2
[10] = test system: NCI-H23
[11] = test system: EKVX
[12] = test system: A498
[13] = test system: DLD-1
[14] = test system: HOP-92
[15] = test system: HOP-18
[16] = test system: NCI-H460
[17] = test system: SK-OV-3
[18] = test system: RXF 393
[19] = test system: DMS-114
[20] = test system: SK-MEL-28
[21] = test system: IGROV-1
[22] = test system: M19-MEL
[23] = test system: SR
[24] = test system: LOX IMVI
[25] = test system: SNB-19
[26] = test system: M14
[27] = test system: HT-29
[28] = test system: A549
[29] = test system: UACC-62
[30] = test system: HL-60
[31] = test system: OVCAR-8
[32] = test system: HCT-15
[33] = test system: NCI-H226
[34] = test system: UO-31
[35] = test system: Malme-3M
[36] = test system: KM-20L2
[37] = test system: SF-268
[38] = test system: MOLT-4
[39] = test system: LXFL 529
[40] = test system: 786-0
[41] = test system: HCT-116
[42] = test system: COLO 205
[43] = test system: UACC-257
[44] = test system: CCRF-CEM
[45] = test system: SK-MEL-5
[46] = test system: HOP-62
[47] = test system: SF-539
[48] = test system: OVCAR-5
[49] = test system: NCI-H522
[50] = test system: U-251
[51] = test system: SNB-75
[52] = test system: SW-620
[53] = test system: OVCAR-3
[54] = test system: RPMI-8226

Clc1ccc(C2SCc3nc4ccccc4n32)c(Cl)c1 (centres undefined)
GI50 [1]: 14.7 µM (inactive) | GI50 [2]: 14.4 µM (inactive) | GI50 [3]: 14.6 µM (inactive) | GI50 [4]: 11 µM (inactive) | GI50 [5]: 14.6 µM (inactive) | GI50 [6]: 8.36 µM (inactive) | GI50 [7]: 19.1 µM (inactive) | GI50 [8]: 15 µM (inactive) | GI50 [9]: 16.5 µM (inactive) | GI50 [10]: 11.3 µM (inactive) | GI50 [11]: 11.6 µM (inactive) | GI50 [12]: 15 µM (inactive) | GI50 [13]: 15.7 µM (inactive) | GI50 [14]: 2.83 µM (inactive) | GI50 [15]: 19.5 µM (inactive) | GI50 [16]: 16.6 µM (inactive) | GI50 [17]: 25.8 µM (inactive) | GI50 [18]: 15.1 µM (inactive) | GI50 [19]: 8.3 µM (inactive) | GI50 [20]: 16.6 µM (inactive) | GI50 [21]: 15.5 µM (inactive) | GI50 [22]: 14.8 µM (inactive) | GI50 [23]: 14.7 µM (inactive) | GI50 [24]: 15.3 µM (inactive) | GI50 [25]: 18 µM (inactive) | GI50 [26]: 14.4 µM (inactive) | GI50 [27]: 16 µM (inactive) | GI50 [28]: 14.5 µM (inactive) | GI50 [29]: 17.7 µM (inactive) | GI50 [30]: 8.22 µM (inactive) | GI50 [31]: 16.9 µM (inactive) | GI50 [32]: 15.6 µM | GI50 [33]: 14.8 µM (inactive) | GI50 [34]: 12.1 µM (inactive) | GI50 [35]: 17.7 µM (inactive) | GI50 [36]: 21.4 µM (inactive) | GI50 [37]: 16.5 µM (inactive) | GI50 [38]: 14.1 µM (inactive) | GI50 [39]: 11.9 µM (inactive) | GI50 [40]: 17.2 µM (inactive) | GI50 [41]: 14 µM (inactive) | GI50 [42]: 17 µM (inactive) | GI50 [43]: 9.79 µM (inactive) | GI50 [44]: 12.6 µM (inactive) | GI50 [45]: 7.93 µM (inactive) | GI50 [46]: 14 µM (inactive) | GI50 [47]: 17.5 µM (inactive) | GI50 [48]: 16.2 µM (inactive) | GI50 [49]: 15.7 µM (inactive) | GI50 [50]: 17.9 µM (inactive) | GI50 [51]: 19.3 µM (inactive) | GI50 [52]: 9.16 µM (inactive) | GI50 [53]: 14.1 µM (inactive) | GI50 [54]: 6.92 µM (inactive)
